Experimental data from BindingDB's records for doi:10.1074/jbc.M705416200 (University Würzburg, 2007).
Peptide text beside a SMILES is read from it.

experiment: Inhibition of human SGLT1 expressed in xenopus laevis oocyte assessed as inhibition of methyl-alpha-D-[14C]glucopyranoside uptake after 1 hrs

IC50 [nM] | Structure (SMILES)
0.16 | NC(=O)CC[C@H](N)C(=O)N[C@@H](CO)C(=O)N1CCC[C@H]1C(=O)O [(S)-1-((S)-2-((S)-2,5-diamino-5-oxopentanamido)-3-hydroxypropanoyl)pyrrolidine-2-carboxylic acid] (H-Gln-Ser-Pro-OH)
2.1 | NC(=O)CC[C@H](N)C(=O)N[C@@H](CS)C(=O)N1CCC[C@H]1C(=O)O [QCP] (H-Gln-Cys-Pro-OH)
0.17 | CC(=O)N1CCC[C@H]1C(=O)N[C@@H](CO)C(=O)N[C@@H](CCC(N)=O)C(=O)O [QSPac] (Ac-Pro-Ser-Gln-OH)
